# Laboratory results: PubChem BioAssay AID200 (DTP/NCI, 2004)
# Several values for one entry are separate records, joined by “and”; a condition that tells them apart may be missing. Equal values may be shown once. Toxic doses and inconclusive results are not listed.
# System: B6C3F1 mice, B16 melanoma ip, median survival T/C
# Experiment: NCI In Vivo Anticancer Drug Screen. Data for tumor model B16 Melanoma (intraperitoneal) in B6C3F1 mice
# Settings: endpoint: median survival time, higher = longer survival
# Experimental: The antitumor activity of compounds was measured in mice bearing transplantable tumors. Survival or tumor size were measured and the results are expressed as the measurement made in the treated group (T) divided by the measurement made in the vehicle treated control group (C). The tumor model used in this assay is B16 Melanoma (intraperitoneal) in B6C3F1 mice
# [1] = dose: 100.0 mg/kg/injection, schedule: Q01DX009 (ip), vehicle: Klucel (hydroxypropylcellulose) (HPC)
# [2] = dose: 1.56 mg/kg/injection, schedule: Q01DX009 (ip), vehicle: saline
# [3] = dose: 3.12 mg/kg/injection, schedule: Q01DX009 (ip), vehicle: saline
# [4] = dose: 25.0 mg/kg/injection, schedule: Q01DX009 (ip), vehicle: saline with Tween-80
# [5] = dose: 100.0 mg/kg/injection, schedule: Q01DX009 (ip), vehicle: saline with Tween-80
# [6] = dose: 400.0 mg/kg/injection, schedule: Q01DX009 (ip), vehicle: saline with Tween-80
# [7] = dose: 1.5 mg/kg/injection, schedule: Q01DX009 (ip), vehicle: saline with Tween-80
# [8] = dose: 3.0 mg/kg/injection, schedule: Q01DX009 (ip), vehicle: saline with Tween-80
# [9] = dose: 12.0 mg/kg/injection, schedule: Q01DX009 (ip), vehicle: saline with Tween-80
# [10] = dose: 3.13 mg/kg/injection, schedule: Q01DX009 (ip), vehicle: saline with Tween-80
# [11] = dose: 6.25 mg/kg/injection, schedule: Q01DX009 (ip), vehicle: saline with Tween-80
# [12] = dose: 12.5 mg/kg/injection, schedule: Q01DX009 (ip), vehicle: saline with Tween-80
# [13] = dose: 50.0 mg/kg/injection, schedule: Q01DX009 (ip), vehicle: saline with Tween-80
# [14] = dose: 200.0 mg/kg/injection, schedule: Q01DX009 (ip), vehicle: saline with Tween-80
# [15] = dose: 800.0 mg/kg/injection, schedule: Q01DX009 (ip), vehicle: saline with Tween-80
# [16] = dose: 3.12 mg/kg/injection, schedule: Q01DX009 (ip), vehicle: saline with Tween-80
# [17] = dose: 0.25 mg/kg/injection, schedule: Q01DX009 (ip), vehicle: Klucel (hydroxypropylcellulose) (HPC)
# [18] = dose: 0.5 mg/kg/injection, schedule: Q01DX009 (ip), vehicle: Klucel (hydroxypropylcellulose) (HPC)
# [19] = dose: 1.0 mg/kg/injection, schedule: Q01DX009 (ip), vehicle: Klucel (hydroxypropylcellulose) (HPC)
# [20] = dose: 0.39 mg/kg/injection, schedule: Q01DX009 (ip), vehicle: saline
# [21] = dose: 0.78 mg/kg/injection, schedule: Q01DX009 (ip), vehicle: saline
smiles,measurement,setting,value
NC1C(O)C(O)C(Nc2ncnc3nc[nH]c23)OC1C(O)CO (configuration not stated),T/C,"dose: 10.0 mg/kg/injection, schedule: Q01DX009 (ip), vehicle: saline",99 % of control
same,T/C,"dose: 20.0 mg/kg/injection, schedule: Q01DX009 (ip), vehicle: saline",96 % of control
same,T/C,"dose: 40.0 mg/kg/injection, schedule: Q01DX009 (ip), vehicle: saline",94 % of control
same,T/C,"dose: 80.0 mg/kg/injection, schedule: Q01DX009 (ip), vehicle: saline",106 % of control
CC(C)(C)OC(=O)NC(Cc1cnc[nH]1)C(=O)O (configuration not stated),T/C,[1],97 % of control
same,T/C,"dose: 200.0 mg/kg/injection, schedule: Q01DX009 (ip), vehicle: Klucel (hydroxypropylcellulose) (HPC)",94 % of control
same,T/C,"dose: 400.0 mg/kg/injection, schedule: Q01DX009 (ip), vehicle: Klucel (hydroxypropylcellulose) (HPC)",106 % of control
O=C(O)C1CSCN1 (configuration not stated),T/C,"dose: 0.39 mg/kg/injection, schedule: Q01DX009 (ip), vehicle: Klucel (hydroxypropylcellulose) (HPC)",95 % of control
same,T/C,"dose: 0.78 mg/kg/injection, schedule: Q01DX009 (ip), vehicle: Klucel (hydroxypropylcellulose) (HPC)",99 % of control
same,T/C,"dose: 1.56 mg/kg/injection, schedule: Q01DX009 (ip), vehicle: Klucel (hydroxypropylcellulose) (HPC)",97 % of control
same,T/C,[2],96 % of control
same,T/C,"dose: 3.12 mg/kg/injection, schedule: Q01DX009 (ip), vehicle: Klucel (hydroxypropylcellulose) (HPC)",86 % of control
same,T/C,[3],86 % of control
same,T/C,"dose: 6.25 mg/kg/injection, schedule: Q01DX009 (ip), vehicle: Klucel (hydroxypropylcellulose) (HPC)",93 % of control
same,T/C,"dose: 6.25 mg/kg/injection, schedule: Q01DX009 (ip), vehicle: saline",90 % of control and 107 % of control
same,T/C,"dose: 12.5 mg/kg/injection, schedule: Q01DX009 (ip), vehicle: Klucel (hydroxypropylcellulose) (HPC)",87 % of control
same,T/C,"dose: 12.5 mg/kg/injection, schedule: Q01DX009 (ip), vehicle: saline",116 % of control and 98 % of control and 102 % of control
same,T/C,"dose: 25.0 mg/kg/injection, schedule: Q01DX009 (ip), vehicle: saline",117 % of control and 104 % of control
same,T/C,"dose: 50.0 mg/kg/injection, schedule: Q01DX009 (ip), vehicle: saline",110 % of control and 121 % of control
same,T/C,"dose: 100.0 mg/kg/injection, schedule: Q01DX009 (ip), vehicle: saline",112 % of control and 101 % of control
CCCCCCC(=O)CC(SCC)c1ccccc1Cl (configuration not stated),T/C,[4],86 % of control
same,T/C,[5],93 % of control
same,T/C,[6],96 % of control
COc1cccc2c1C(=O)c1c(O)c3c(c(O)c1C2=O)C[C@@](O)(C(C)=O)C[C@@H]3OC1CC(N(Cc2ccccc2)Cc2ccccc2)C(O)C(C)O1 (some centres not stated),T/C,[7],100 % of control
same,T/C,"dose: 1.5 mg/kg/injection, schedule: Q01DX009 (ip), vehicle: water",112 % of control
same,T/C,[8],111 % of control
same,T/C,"dose: 3.0 mg/kg/injection, schedule: Q01DX009 (ip), vehicle: water",116 % of control
same,T/C,[9],156 % of control
same,T/C,"dose: 12.0 mg/kg/injection, schedule: Q01DX009 (ip), vehicle: water",151 % of control
c1ccc2c(c1)[As]=c1ccccc1=[As]2 (configuration not stated),T/C,"dose: 0.75 mg/kg/injection, schedule: Q01DX009 (ip), vehicle: saline with Tween-80",105 % of control
same,T/C,[7],112 % of control and 103 % of control
same,T/C,[8],107 % of control and 108 % of control
same,T/C,"dose: 6.0 mg/kg/injection, schedule: Q01DX009 (ip), vehicle: saline with Tween-80",115 % of control and 98 % of control
same,T/C,[9],122 % of control
same,T/C,"dose: 24.0 mg/kg/injection, schedule: Q01DX009 (ip), vehicle: saline with Tween-80",87 % of control
COc1ccc(C(=S)N2CCN(c3ccccc3)CC2)cc1,T/C,[10],98 % of control
same,T/C,[11],91 % of control
same,T/C,[12],93 % of control
same,T/C,[4],101 % of control
COC(=O)Nc1cn2ccc(C(Cl)=C(Cl)Cl)cc2n1,T/C,"dose: 50.0 mg/kg/injection, schedule: Q01DX009 (ip), vehicle: Klucel (hydroxypropylcellulose) (HPC)",111 % of control
same,T/C,[1],116 % of control
Nc1nc(Br)nc2c1ncn2C1CC(O)C(CO)O1 (configuration not stated),T/C,"dose: 7.5 mg/kg/injection, schedule: Q03HX009 (ip), vehicle: saline",96 % of control
same,T/C,"dose: 15.0 mg/kg/injection, schedule: Q03HX009 (ip), vehicle: saline",96 % of control
same,T/C,"dose: 30.0 mg/kg/injection, schedule: Q03HX009 (ip), vehicle: saline",93 % of control
same,T/C,"dose: 60.0 mg/kg/injection, schedule: Q03HX009 (ip), vehicle: saline",101 % of control
CC(C)(C)c1ccc(C(=O)N2CCOC23CCCCC3)cc1,T/C,[13],91 % of control and 101 % of control
same,T/C,[5],98 % of control and 107 % of control
same,T/C,[14],94 % of control and 104 % of control
same,T/C,[6],91 % of control and 104 % of control
same,T/C,[15],92 % of control and 98 % of control
Nc1nc(N)c2c(Cl)c(CNc3ccc(Cl)c(Cl)c3)ccc2n1,T/C,[16],121 % of control
same,T/C,[11],106 % of control
same,T/C,[12],123 % of control
O=C1C=C[C@H](O)[C@@]2(CO)O[C@@H]12,T/C,"dose: 0.31 mg/kg/injection, schedule: Q01DX009 (ip), vehicle: saline with Tween-80",98 % of control
same,T/C,"dose: 0.62 mg/kg/injection, schedule: Q01DX009 (ip), vehicle: saline with Tween-80",100 % of control
same,T/C,"dose: 1.25 mg/kg/injection, schedule: Q01DX009 (ip), vehicle: saline with Tween-80",102 % of control
same,T/C,"dose: 2.5 mg/kg/injection, schedule: Q01DX009 (ip), vehicle: saline with Tween-80",109 % of control
same,T/C,"dose: 5.0 mg/kg/injection, schedule: Q01DX009 (ip), vehicle: saline with Tween-80",115 % of control and 93 % of control
same,T/C,"dose: 10.0 mg/kg/injection, schedule: Q01DX009 (ip), vehicle: saline with Tween-80",121 % of control
CS(=O)(=O)c1ncc(Br)cn1,T/C,[16],100 % of control
same,T/C,[10],101 % of control
same,T/C,[11],99 % of control and 105 % of control
same,T/C,[12],98 % of control and 106 % of control
same,T/C,[4],96 % of control and 104 % of control
same,T/C,[13],109 % of control and 97 % of control
same,T/C,[5],100 % of control and 104 % of control
Clc1ccc2nnnn2n1,T/C,[12],95 % of control
same,T/C,[4],105 % of control
same,T/C,[13],108 % of control and 116 % of control and 123 % of control
same,T/C,[5],111 % of control
same,T/C,[14],167 % of control
CC(C)(O)[C@H]1[C@@H]2OC(=O)[C@H]1[C@]1(O)C[C@H]3OC34C(=O)O[C@H]2[C@@]41C (some centres not stated) (tested in a mixture with another compound),T/C,[17],110 % of control
same,T/C,[18],99 % of control
same,T/C,[19],108 % of control
same,T/C,"dose: 2.0 mg/kg/injection, schedule: Q01DX009 (ip), vehicle: Klucel (hydroxypropylcellulose) (HPC)",111 % of control
c1ccc2c(c1)-c1ccccc1C1NC21 (configuration not stated),T/C,[11],103 % of control
same,T/C,[12],112 % of control
NCC1CCC(C(=O)O)CC1 (configuration not stated),T/C,[12],102 % of control
same,T/C,[4],101 % of control
same,T/C,[13],101 % of control
same,T/C,[5],101 % of control
same,T/C,[14],94 % of control
COC1=C(C)C(=O)C2=C(C1=O)C1C3CC4=C(C(=O)C(OC)=C(C)C4=O)C(CNC(=O)C(C)=O)N3C(C#N)C(C2)N1C (configuration not stated),T/C,"dose: 0.12 mg/kg/injection, schedule: Q01DX009 (ip), vehicle: Klucel (hydroxypropylcellulose) (HPC)",95 % of control
same,T/C,[17],103 % of control and 106 % of control
same,T/C,[18],99 % of control and 106 % of control
same,T/C,[19],115 % of control and 103 % of control
Cc1cc(NCCCN(C)C)c2ccc3c(ccc4c(NCCCN(C)C)cc(C)nc43)c2n1,T/C,"dose: 0.19 mg/kg/injection, schedule: Q01DX009 (ip), vehicle: saline",114 % of control
same,T/C,[20],102 % of control
same,T/C,[21],91 % of control
same,T/C,[2],106 % of control
same,T/C,[3],113 % of control and 102 % of control
CC[n+]1ccc2c(C)c3[nH]c4ccc(O)cc4c3c(C)c2c1,T/C,[20],110 % of control and 114 % of control
same,T/C,[21],122 % of control
same,T/C,[2],123 % of control
O=C(CCl)NC(Cc1ccccc1)C(=O)O (configuration not stated),T/C,[13],88 % of control
same,T/C,[5],90 % of control
same,T/C,[14],90 % of control
c1ccc(-c2cc3cc4ccccc4cn3c2)cc1,T/C,[13],110 % of control
same,T/C,[5],118 % of control
same,T/C,[14],116 % of control
same,T/C,[6],105 % of control
same,T/C,[15],108 % of control
